# In ChEMBL document CHEMBL5528042, “Identification of Novel, Selective Ataxia-Telangiectasia Mutated Kinase Inhibitors with the Ability to Penetrate the Blood-Brain Barrier: The Discovery of AZD1390” (J Med Chem, 2024):
# Assays:
# [1] = Lipophilicity, logD of the compound at pH 7.4; assay type: physicochemical; conditions: buffer
# [2] = Unbound brain to plasma drug concentration ratio in mouse at 50 mg/kg,po administration and measured after 2 hrs; assay type: ADME, organism-based; conditions: read-out: K(p,uu,brain)
# [3] = biological target: Serine-protein kinase ATM (Homo sapiens, UniProt Q13315); experiment: Inhibition of ATM in human HT-29 cells incubated for 2 hrs by Alexa Fluor 488/Hoeschst staining based plate reader assay; assay type: cell-based
# MDR1, BCRP [4] = experiment: Efflux ratio of apparent permeability across basolateral to apical side over apical to basolateral side in dog MDCKII-MDR1 cells overexpressing BCRP at 0.1 uM incubated for 90 mins by LC-MS/MS analysis; assay type: ADME, cell-based, Canis lupus familiaris, MDCK-MDR1
# MDR1, BCRP [5] = experiment: Efflux ratio of apparent permeability across basolateral to apical side over apical to basolateral side in dog MDCKII-MDR1 cells overexpressing BCRP at 1 uM incubated for 90 mins by LC-MS/MS analysis; assay type: ADME, cell-based, Canis lupus familiaris, MDCK-MDR1
# [6] = Intrinsic clearance in rat hepatocyte assessed per 10^6 cells; assay type: ADME, cell-based; conditions: hepatocytes, read-out: CLH
# [7] = Apparent permeability across apical to basolateral side in dog MDCKII-MDR1 cells overexpressing BCRP at 1 uM incubated for 90 mins by LC-MS/MS analysis; assay type: ADME, cell-based, Canis lupus familiaris, MDCK-MDR1
# [8] = Intrinsic clearance in human hepatocyte assessed per 10^6 cells; assay type: ADME, cell-based; conditions: hepatocytes, read-out: CLH
# [9] = biological target: Serine/threonine-protein kinase ATR (Homo sapiens, UniProt Q13535); experiment: Inhibition of ATR in human HT-29 cells incubated for 2 hrs by Alexa Fluor 488/Hoeschst staining based plate reader assay; assay type: cell-based
# Chain of Serine/threonine-protein kinase ATR (Q13535 whole entry): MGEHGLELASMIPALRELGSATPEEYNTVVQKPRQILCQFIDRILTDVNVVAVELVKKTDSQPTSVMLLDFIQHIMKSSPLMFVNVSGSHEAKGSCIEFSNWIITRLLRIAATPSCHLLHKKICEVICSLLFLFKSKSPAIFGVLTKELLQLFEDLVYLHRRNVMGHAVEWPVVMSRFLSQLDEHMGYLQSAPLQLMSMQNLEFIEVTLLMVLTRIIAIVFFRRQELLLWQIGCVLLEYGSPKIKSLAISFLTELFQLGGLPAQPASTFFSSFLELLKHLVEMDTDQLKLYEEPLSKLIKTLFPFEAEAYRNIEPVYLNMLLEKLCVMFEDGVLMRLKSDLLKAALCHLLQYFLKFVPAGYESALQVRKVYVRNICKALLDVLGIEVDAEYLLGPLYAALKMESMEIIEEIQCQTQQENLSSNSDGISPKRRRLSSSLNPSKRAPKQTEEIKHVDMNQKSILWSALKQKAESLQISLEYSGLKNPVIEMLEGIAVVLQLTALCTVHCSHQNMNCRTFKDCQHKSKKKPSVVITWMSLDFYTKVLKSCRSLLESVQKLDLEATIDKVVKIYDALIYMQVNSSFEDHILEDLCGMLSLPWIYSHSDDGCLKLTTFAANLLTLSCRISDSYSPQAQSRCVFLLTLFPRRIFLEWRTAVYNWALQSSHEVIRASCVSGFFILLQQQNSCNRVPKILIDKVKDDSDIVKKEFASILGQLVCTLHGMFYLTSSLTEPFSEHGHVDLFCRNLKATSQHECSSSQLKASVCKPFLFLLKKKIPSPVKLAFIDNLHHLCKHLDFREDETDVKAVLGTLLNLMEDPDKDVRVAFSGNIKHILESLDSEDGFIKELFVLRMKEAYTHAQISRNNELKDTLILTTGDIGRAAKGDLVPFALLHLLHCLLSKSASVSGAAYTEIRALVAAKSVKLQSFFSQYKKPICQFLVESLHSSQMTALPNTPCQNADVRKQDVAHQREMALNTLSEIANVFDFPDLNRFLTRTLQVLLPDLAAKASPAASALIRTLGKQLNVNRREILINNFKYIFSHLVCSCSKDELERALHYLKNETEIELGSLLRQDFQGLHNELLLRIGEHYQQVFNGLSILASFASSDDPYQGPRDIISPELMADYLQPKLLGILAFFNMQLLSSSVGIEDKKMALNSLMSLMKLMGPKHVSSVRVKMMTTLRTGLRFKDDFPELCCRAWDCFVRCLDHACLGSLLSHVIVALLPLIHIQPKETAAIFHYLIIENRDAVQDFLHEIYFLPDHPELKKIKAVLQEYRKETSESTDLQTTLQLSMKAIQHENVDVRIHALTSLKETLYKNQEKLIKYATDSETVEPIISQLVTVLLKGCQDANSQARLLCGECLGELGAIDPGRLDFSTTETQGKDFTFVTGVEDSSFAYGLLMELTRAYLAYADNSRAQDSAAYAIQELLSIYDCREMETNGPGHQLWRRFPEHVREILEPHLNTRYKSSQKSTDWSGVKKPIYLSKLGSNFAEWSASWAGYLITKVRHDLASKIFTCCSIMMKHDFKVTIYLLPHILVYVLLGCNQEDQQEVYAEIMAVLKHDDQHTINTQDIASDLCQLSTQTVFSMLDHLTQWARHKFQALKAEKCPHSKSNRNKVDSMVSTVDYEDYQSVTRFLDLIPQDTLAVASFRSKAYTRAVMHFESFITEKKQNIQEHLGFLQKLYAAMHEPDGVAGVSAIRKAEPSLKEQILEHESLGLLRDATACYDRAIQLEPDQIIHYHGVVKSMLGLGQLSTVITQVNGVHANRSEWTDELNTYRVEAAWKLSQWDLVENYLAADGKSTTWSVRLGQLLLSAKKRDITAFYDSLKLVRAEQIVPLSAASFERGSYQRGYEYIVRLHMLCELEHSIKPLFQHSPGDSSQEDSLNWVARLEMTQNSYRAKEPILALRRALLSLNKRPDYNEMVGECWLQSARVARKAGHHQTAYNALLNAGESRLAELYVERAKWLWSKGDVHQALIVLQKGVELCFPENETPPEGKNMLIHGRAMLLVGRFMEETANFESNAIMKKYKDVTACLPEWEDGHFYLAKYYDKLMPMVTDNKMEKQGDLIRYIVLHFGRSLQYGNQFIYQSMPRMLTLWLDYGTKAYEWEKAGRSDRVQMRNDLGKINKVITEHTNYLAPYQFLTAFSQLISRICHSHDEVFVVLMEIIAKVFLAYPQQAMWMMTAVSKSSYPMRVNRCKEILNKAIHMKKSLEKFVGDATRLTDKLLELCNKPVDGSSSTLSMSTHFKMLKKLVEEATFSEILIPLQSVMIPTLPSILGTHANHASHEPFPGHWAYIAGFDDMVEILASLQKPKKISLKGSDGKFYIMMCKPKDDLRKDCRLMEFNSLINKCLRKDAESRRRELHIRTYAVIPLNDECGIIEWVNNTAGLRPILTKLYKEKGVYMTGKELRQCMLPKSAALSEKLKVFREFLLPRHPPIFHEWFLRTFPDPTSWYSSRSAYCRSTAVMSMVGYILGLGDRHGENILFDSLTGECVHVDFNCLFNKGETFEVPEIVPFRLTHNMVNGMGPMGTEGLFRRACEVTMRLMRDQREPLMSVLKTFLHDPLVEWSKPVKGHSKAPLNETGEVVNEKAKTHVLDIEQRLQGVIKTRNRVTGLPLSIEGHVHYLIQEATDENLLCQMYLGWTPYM
# [10] = Aqueous solubility of the compound in pH 7.4; assay type: physicochemical; conditions: buffer
# [11] = Apparent permeability across apical to basolateral side in dog MDCKII-MDR1 cells overexpressing BCRP at 0.1 uM incubated for 90 mins by LC-MS/MS analysis; assay type: ADME, cell-based, Canis lupus familiaris, MDCK-MDR1
# [12] = Tmax in Cynomolgus monkey at iv administered as bolus injection measured at 4 to 90 mins by gamma counter analysis; assay type: ADME, organism-based, Macaca fascicularis; conditions: in vivo, time 4-90 min
# [13] = Plasma protein binding in human assessed as unbound fraction incubated for 16 hrs by equilibrium dialysis based UPLC-MS/MS analysis; assay type: ADME, cell-free
# [14] = Half life in dog at 2 mg/kg,po or 1 mg/kg,iv administration measured for 24 hrs by LC-MS/MS analysis; assay type: ADME, organism-based, Canis lupus familiaris; conditions: in vivo
# [15] = Bioavailability in rat at 1 mg/kg,po or 0.5 mg/kg,iv administration measured for 24 hrs by LC-MS/MS analysis; assay type: ADME, organism-based; conditions: in vivo
# [16] = Half life in rat at 1 mg/kg,po or 0.5 mg/kg,iv administration measured for 24 hrs by LC-MS/MS analysis; assay type: ADME, organism-based; conditions: in vivo
# [17] = Intrinsic clearance in dog hepatocyte assessed per 10^6 cells; assay type: ADME, cell-based, Canis lupus familiaris; conditions: hepatocytes, read-out: CLH
# [18] = Dissociation constant, pKa of compound; assay type: physicochemical
# [19] = biological target: Phosphatidylinositol 4,5-bisphosphate 3-kinase catalytic subunit alpha isoform (Homo sapiens, UniProt P42336); experiment: Inhibition of PI3Kalpha in human BT-474 cells incubated for 140 mins by ELISA; assay type: cell-based
# Chain of Phosphatidylinositol 4,5-bisphosphate 3-kinase catalytic subunit alpha isoform (P42336 whole entry, canonical isoform): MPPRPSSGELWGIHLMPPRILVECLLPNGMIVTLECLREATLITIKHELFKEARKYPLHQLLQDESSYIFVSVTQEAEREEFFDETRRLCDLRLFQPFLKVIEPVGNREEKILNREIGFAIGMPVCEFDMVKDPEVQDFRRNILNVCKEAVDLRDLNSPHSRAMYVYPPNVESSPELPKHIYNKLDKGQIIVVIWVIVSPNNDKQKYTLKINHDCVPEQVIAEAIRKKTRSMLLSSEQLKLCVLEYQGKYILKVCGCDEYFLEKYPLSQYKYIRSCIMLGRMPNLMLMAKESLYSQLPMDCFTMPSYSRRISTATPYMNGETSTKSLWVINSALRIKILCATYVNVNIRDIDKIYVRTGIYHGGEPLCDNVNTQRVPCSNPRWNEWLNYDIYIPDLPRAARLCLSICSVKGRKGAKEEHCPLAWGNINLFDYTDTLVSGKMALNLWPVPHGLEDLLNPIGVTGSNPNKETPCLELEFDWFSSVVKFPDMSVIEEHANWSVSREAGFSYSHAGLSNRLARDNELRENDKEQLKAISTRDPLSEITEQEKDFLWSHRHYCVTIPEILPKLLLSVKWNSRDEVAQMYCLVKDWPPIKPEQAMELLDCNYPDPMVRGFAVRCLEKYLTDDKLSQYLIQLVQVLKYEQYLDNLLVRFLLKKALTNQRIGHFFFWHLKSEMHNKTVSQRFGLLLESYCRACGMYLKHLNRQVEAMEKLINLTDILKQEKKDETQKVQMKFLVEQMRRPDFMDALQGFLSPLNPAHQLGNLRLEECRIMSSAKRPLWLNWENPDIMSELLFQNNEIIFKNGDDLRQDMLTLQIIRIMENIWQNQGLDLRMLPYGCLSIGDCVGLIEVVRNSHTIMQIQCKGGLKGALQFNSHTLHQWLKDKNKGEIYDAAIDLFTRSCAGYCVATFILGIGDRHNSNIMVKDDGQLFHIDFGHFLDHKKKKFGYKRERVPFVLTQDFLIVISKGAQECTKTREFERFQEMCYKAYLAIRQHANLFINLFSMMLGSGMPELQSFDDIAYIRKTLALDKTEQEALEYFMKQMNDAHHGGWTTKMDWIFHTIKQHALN
# [20] = biological target: Serine/threonine-protein kinase mTOR (Homo sapiens, UniProt P42345); experiment: Inhibition of mTOR in human MDA-MB-468 cells incubated for 2.5 hrs by Alexa Fluor 488 staining based fluorescence analysis; assay type: cell-based
# [21] = Plasma protein binding in dog assessed as unbound fraction incubated for 16 hrs by equilibrium dialysis based UPLC-MS/MS analysis; assay type: ADME, cell-free, Canis lupus familiaris
# [22] = Volume of distribution at steady state in dog at 2 mg/kg,po or 1 mg/kg,iv administration measured for 24 hrs by LC-MS/MS analysis; assay type: ADME, organism-based, Canis lupus familiaris; conditions: in vivo
# [23] = Volume of distribution at steady state in rat at 1 mg/kg,po or 0.5 mg/kg,iv administration measured for 24 hrs by LC-MS/MS analysis; assay type: ADME, organism-based; conditions: in vivo
# [24] = Plasma protein binding in rat assessed as unbound fraction incubated for 16 hrs by equilibrium dialysis based UPLC-MS/MS analysis; assay type: ADME, cell-free
# [25] = biological target: DNA-dependent protein kinase catalytic subunit (Homo sapiens, UniProt P78527); experiment: Inhibition of DNA-PK (unknown origin)
# [26] = Bioavailability in dog at 2 mg/kg,po or 1 mg/kg,iv administration measured for 24 hrs by LC-MS/MS analysis; assay type: ADME, organism-based, Canis lupus familiaris; conditions: in vivo
# [27] = Intrinsic clearance in human liver microsomes; assay type: ADME, Microsome; conditions: read-out: CLH
# [28] = Unbound fraction in Cynomolgus monkey brain at iv administered as bolus injection measured at 4 to 90 mins by PET analysis; assay type: ADME, organism-based, Macaca fascicularis; conditions: time 4-90 min
# [29] = Unbound fraction in Cynomolgus monkey plasma at iv administered as bolus injection measured at 4 to 90 mins by PET analysis; assay type: ADME, organism-based, Macaca fascicularis; conditions: time 4-90 min
# [30] = Unbound brain to plasma drug concentration ratio in Cynomolgus monkey at iv administered as bolus injection measured at 4 to 90 mins by PET analysis; assay type: ADME, organism-based, Macaca fascicularis; conditions: time 4-90 min, read-out: K(p,uu,brain)
compound,measurement,setting,value
Cn1c(=O)n(C2CCOCC2)c2c3cc(-c4cccnc4)ccc3ncc21,logD,[1],2.2
same,Kp uu at 2 h,[2],0.67
CC(C)n1c(=O)n(C)c2cnc3ccc(-c4ccc(OCCCN5CCCC5)nc4)cc3c21,IC50,[3],0.000251 µM
same,logD,[1],2
same,"efflux ratio at […], 0.1 µM","MDR1, BCRP [4]",2.6
same,"efflux ratio at […], 1 µM","MDR1, BCRP [5]",0.8
same,hepatocyte CLint,[6],1.8 µL/min/1e6 cells
same,"Papp A→B at […], 1 µM",[7],250 nm/s
same,hepatocyte CLint,[8],2.6 µL/min/1e6 cells
same,IC50,[9],> 31.6 µM
same,solubility,[10],499 µM
same,"Papp A→B at […], 0.1 µM",[11],240 nm/s
CC(C)n1c(=O)n(C)c2cnc3ccc(-c4ccc(OCCCN(C)C)nc4)cc3c21,logD,[1],1.9
same,"efflux ratio at […], 0.1 µM","MDR1, BCRP [4]",6.3
same,"efflux ratio at […], 1 µM","MDR1, BCRP [5]",2.1
same,hepatocyte CLint,[6],14 µL/min/1e6 cells
same,"Papp A→B at […], 1 µM",[7],210 nm/s
same,hepatocyte CLint,[8],5.2 µL/min/1e6 cells
same,IC50,[9],> 20 µM
same,solubility,[10],480 µM
same,"Papp A→B at […], 0.1 µM",[11],130 nm/s
CN(C)CCCOc1ccc(-c2ccc3ncc4c(c3c2)n(C2CCOCC2)c(=O)n4[11CH3])cn1,Tmax,[12],0.333 h
CC(C)n1c(=O)n(C)c2cnc3ccc(-c4ccc(N5CC[C@@H](N(C)C)C5)nc4)cc3c21,fraction unbound at 16 h,[13],0.07
same,half-life,[14],1.6 h
same,bioavailability,[15],53%
same,half-life,[16],2.9 h
same,logD,[1],3
same,hepatocyte CLint,[17],80 µL/min/1e6 cells
same,pKa,[18],7.9
same,IC50,[19],0.316 µM
same,hepatocyte CLint,[6],27 µL/min/1e6 cells
same,IC50,[20],3.16 µM
same,"Papp A→B at […], 1 µM",[7],270 nm/s
same,hepatocyte CLint,[8],4.5 µL/min/1e6 cells
same,fraction unbound at 16 h,[21],0.26
same,solubility,[10],22 µM
same,Vdss,[22],7.5 L/kg
same,Vdss,[23],0.6 L/kg
same,fraction unbound at 16 h,[24],0.004
CC(C)n1c(=O)n(C)c2cnc3cc(F)c(-c4ccc(OCCCN(C)C)nc4)cc3c21,fraction unbound at 16 h,[13],0.32
same,half-life,[14],6.4 h
same,bioavailability,[15],48%
same,half-life,[16],3.2 h
same,logD,[1],2.1
same,IC50,[25],> 31.6 µM
same,IC50,[19],15.8 µM
same,hepatocyte CLint,[6],13 µL/min/1e6 cells
same,IC50,[20],> 31.6 µM
same,bioavailability,[26],31%
same,"Papp A→B at […], 1 µM",[7],560 nm/s
same,hepatocyte CLint,[8],6.7 µL/min/1e6 cells
same,fraction unbound at 16 h,[21],0.42
same,IC50,[9],> 31.6 µM
same,solubility,[10],680 µM
same,"Papp A→B at […], 0.1 µM",[11],230 nm/s
same,Vdss,[22],18 L/kg
same,Vdss,[23],4.1 L/kg
same,fraction unbound at 16 h,[24],0.17
CC(C)n1c(=O)n(C)c2cnc3ccc(-c4ccc(OCCCN5CC[C@H](F)C5)nc4)cc3c21,microsomal CLint,[27],65 µL/min/mg
same,logD,[1],3
same,pKa,[18],8.1
same,hepatocyte CLint,[6],20 µL/min/1e6 cells
same,hepatocyte CLint,[8],7.2 µL/min/1e6 cells
same,IC50,[9],> 20 µM
same,solubility,[10],43 µM
same,"Papp A→B at […], 0.1 µM",[11],190 nm/s
CC(C)n1c(=O)n(C)c2cnc3ccc(-c4ccc(OCCCN5CCC(F)CC5)nc4)cc3c21,microsomal CLint,[27],100 µL/min/mg
same,logD,[1],3.3
same,pKa,[18],8.5
same,hepatocyte CLint,[6],29 µL/min/1e6 cells
same,"Papp A→B at […], 1 µM",[7],130 nm/s
same,hepatocyte CLint,[8],8.5 µL/min/1e6 cells
same,solubility,[10],15 µM
same,"Papp A→B at […], 0.1 µM",[11],140 nm/s
CC(C)n1c(=O)n([11CH3])c2cnc3cc(F)c(-c4ccc(OCCCN(C)C)nc4)cc3c21,Tmax,[12],0.075 h
same,fraction unbound,[28],0.02
same,fraction unbound,[29],0.195
same,Kp uu,[30],0.41
CC(C)n1c(=O)n([11CH3])c2cnc3cc(F)c(-c4ccc(OCCCN5CCCCC5)nc4)cc3c21,Tmax,[12],0.155 h
same,fraction unbound,[28],0.01
same,fraction unbound,[29],0.175
same,Kp uu,[30],0.33
CC(C)n1c(=O)n(C)c2cnc3cc(F)c(-c4ccc(OCCCN5CCCCC5)nc4)cc3c21 [AZD-1390],fraction unbound at 16 h,[13],0.26
same,IC50,[3],0.000794 µM
same,bioavailability,[15],74%
same,IC50,[25],> 31.6 µM
same,IC50,[19],> 12.6 µM
same,IC50,[20],> 15.8 µM
same,bioavailability,[26],66%
same,"Papp A→B at […], 1 µM",[7],240 nm/s
same,fraction unbound at 16 h,[21],0.25
same,IC50,[9],> 31.6 µM
same,solubility,[10],693 µM
same,"Papp A→B at […], 0.1 µM",[11],170 nm/s
same,Vdss,[22],24 L/kg
same,Vdss,[23],3 L/kg
same,fraction unbound at 16 h,[24],0.04
